Reference: patent publication US8652718B2, “Resin composition, image-forming material, and image-forming method” (Fuji Xerox Co., Ltd., priority 2012, dated 2014)
In brackets after ≈: the same amount, converted by molar mass. Where two headings read alike, the source gives them in different places.

Tests used:
[1] = Measurement of solubility in tetrahydrofuran; format: physicochemical; details: for Solubility in tetrahydrofuran compared to Formulae (II-1) and (II-2): comparison in words from Table 1; for solubility: tetrahydrofuran, 24 °C, organic solvent or mixture, thermodynamic from solid, 24±1° C.
Description: The solubility of the compound represented by Formula (I-1) in tetrahydrofuran (24±1° C.) is measured in the following manner.
After 10.00 mg of the compound (dark brown solid) represented by Formula (I-1) is mixed with 5.00 ml of tetrahydrofuran in a screw vial, the vial is irradiated with ultrasonic waves for 30 minutes while the vial is sealed with a cap, and left to stand overnight at room temperature. The obtained solution is filtered through a membrane filter having a pore size of 25 nm, and a dry weight of the dark brown solid remaining on the filter is measured. As a result, the weight of the compound represented by Formula (I-1) dissolved in 5.00 ml of tetrahydrofuran is found, whereby the solubility in tetrahydrofuran may be calculated.

[2] = Visible near-infrared absorption spectrum in a tetrahydrofuran solution; format: physicochemical
Description: The dark brown solid obtained as above is identified by an infrared absorption spectrum (KBr tablet method), a ^1H-NMR spectrum, a mass spectrum, and a visible near-infrared absorption spectrum. As a result, the dark brown solid described above is confirmed to have a molecular structure represented by Formula (I-1).
Visible Near-Infrared Absorption Spectrum (FIG. 1): […]

[3] = read-out: Solubility in tetrahydrofuran
[4] = read-out: Solubility in tetrahydrofuran, Relative evaluation

Compound	Solubility in tetrahydrofuran compared to Formulae (II-1) and (II-2) [1]	solubility [1, 3] [mg/mL]	solubility [1, 4] [mg/mL]	Maximum absorption wavelength (λmax) [2] [nm]	Molar absorption coefficient at the maximum absorption wavelength (εmax) [2] [M⁻¹ cm⁻¹]
CC(C)(C)c1ccc(C2=CC(=CC3=C([O-])/C(=C/c4cc(-c5ccc(C(C)(C)C)cc5)[s+]c(-c5ccc(C(C)(C)C)cc5)c4)C3=O)C=C(c3ccc(C(C)(C)C)cc3)S2)cc1 [Formula I-1]	superior solubility in tetrahydrofuran	1.3	≥ 1	908	269000
CCCCc1ccc(C2=CC(=CC3=C([O-])/C(=C/c4cc(-c5ccc(CCCC)cc5)[s+]c(-c5ccc(CCCC)cc5)c4)C3=O)C=C(c3ccc(CCCC)cc3)S2)cc1 [Formula I-2]	superior solubility in tetrahydrofuran	1.1	≥ 1	910	210000
CCc1ccc(C2=CC(=CC3=C([O-])/C(=C/c4cc(-c5ccc(CC)cc5)[s+]c(-c5ccc(CC)cc5)c4)C3=O)C=C(c3ccc(CC)cc3)S2)cc1 [Formula I-3]	superior solubility in tetrahydrofuran	0.6	0.1 to 1	908	180000
O=C1C(C=C2C=C(c3ccccc3)SC(c3ccccc3)=C2)=C([O-])/C1=C/c1cc(-c2ccccc2)[s+]c(-c2ccccc2)c1 [II-1, reference compound]	–	< 0.05	< 0.1	901	207000
Cc1ccc(C2=CC(=CC3=C([O-])/C(=C/c4cc(-c5ccc(C)cc5)[s+]c(-c5ccc(C)cc5)c4)C3=O)C=C(c3ccc(C)cc3)S2)cc1 [II-2, reference compound]	–	0.3 (≈ 455 µM)	0.1 to 1 (≈ 152 to 1520 µM)	905	190000
CCCCCCc1ccc(C2=CC(=CC3=C([O-])/C(=C/c4cc(-c5ccc(CCCCCC)cc5)[s+]c(-c5ccc(CCCCCC)cc5)c4)C3=O)C=C(c3ccc(CCCCCC)cc3)S2)cc1 [II-3, reference compound]	–	1.1 (≈ 1170 µM)	≥ 1	910	200000
